According to patent publication US9808434B2, “Compound for treating cancer and diabetes” (CITY OF HOPE, priority 2011, dated 2017):

Legend:
3T3-L1 cells [1] = test: Adipocyte differentiation, Oil Red O staining; type: cell-based, mouse; conditions: preadipocytes 7 days in differentiating media (DM) + compound
Experimental: Two-day post-confluent 3T3-L1 preadipocyte cells were allowed to differentiate for 7 days in the presence of nothing, DM only, DM+ a test compound (COH-SR1, COH-SR2, COH-SR3, COH-SR4, COH-SR7, LR23 or LR59), or DM+ a positive control (TSA, C75, or Apicidin).
(§1) 3T3-L1 preadipocytes cells were treated with differentiating media (DM) with COH-SR4 (1 μM, 3 μM, or 5 μM) or without for 7 days. […] As used in FIG. 9C, U=undifferentiated, D=differentiated with cocktail media.

[2] = system: fully differentiated adipocytes; test: Dedifferentiation of fully differentiated adipocytes, Oil Red O staining; type: cell-based; conditions: differentiated 7 days, treated additional 3 days
Experimental: Fully differentiated adipocyte cells were differentiated for 7 days and were treated for additional 3 days with DM+ a test compound (COH-SR3, COH-SR7, or LR59), DM+ a positive control (Apicidin, TSA or C75), DM, or nothing (control).

3T3-L1 cells [3] = test: Intracellular triglyceride contents, AdipoRed Assay; type: cell-based, mouse; conditions: 7 days in DM + compound
Experimental: Intracellular triglyceride contents were measured using AdipoRed Assay™ and the results were shown in relative fluorescence units (RFU) in FIG. 5.
as §1

[4] = system: undifferentiated 3T3-L1 cells; test: Preadipocyte viability, MTT assay; type: cell-based, mouse; conditions: 3 days, 2.5-25 μM
Experimental: Undifferentiated 3T3-LI cells were treated with COH-SR2, COH-SR3, COH-SR4, COH-SR7, LR23 or LR59 for 3 days at a concentration of 2.5 μM, 5 μM, 10 μM, 15 μM, 20 μM, or 25 μM. The cell viability for each treatment was determined by MTT assay (FIG. 7).

HL-60 cells [5] = test: Differentiation of HL-60 cells (Giemsa-Wright, NBT, CD11b/CD14); type: cell-based, human; conditions: 48 hours, 2-10 μM
Experimental: HL-60 cells were incubated with a test compound at various concentrations (2˜10 μM), DMSO, or without any test compound for 48 hours, and then examined for morphologic changes by Giemsa-Wright stain. The results were observed microscopically and shown in FIG. 13 at a magnification of ×400. […] Such results were similar to cells treated with DMSO or all-trans retinoic acid (ATRA), wherein DMSO or ATRA terminally differentiated HL-60 cells into myeloid cells (FIG. 13).
HL-60 cells (2.5×10^5) were treated with or without a test compound for 48 hours and then stained with NBT, wherein positively-stained cells appeared as purple black (FIG. 14A). NBT positive cells were counted and the overall percentage was calculated based on 200 total cells counted for each treatment. Three˜four independent experiments were carried out, and data are shown as mean±SE (FIG. 14B). This measurement of “oxidative burst” by the NBT assay is a well-known and extensively tested functional marker of HL-60 cell differentiation.
HL-60 cells (2.5×10^5) were incubated with a test compound (COH-SR4 or COH-SR9) at a concentration of 0.5 μM, 1 μM, 2 μM, or 3 μM, or without any COH-SR compound for 48 hours and then assessed for the surface expression of CD11b (FIG. 14C) and CD14 (FIG. 14D) by flow cytometry, respectively. Three-four independent experiments were carried out, and data are shown as mean±SE (FIGS. 14C and 14D).

[6] = system: NCI-60 human tumor cell lines; test: NCI-60 DTP Human Tumor Cell Line Drug Screening; type: cell-based; conditions: leukemia, NSCLC, colon, CNS, melanoma, ovarian, renal, prostate, breast lines
Text: Moreover, preliminary data from the NCI-60 DTP Human Tumor Cell Line Drug Screening (http://dtp.nci.nih.gov/branches/btb/ivclsp.html) further confirmed the observations on these COH-SR compounds. […] A value of 100 meant no growth inhibition. A value of 20 meant 80% growth inhibition. A value of 0 meant no net growth over the course of the experiment. A value of −40 meant 40% lethality. A value of −100 meant all cells were dead.

AMPK = AMPK activation in Hela cells, Western blot; type: cell-based; conditions: 1 hour, 1, 3 or 5 μM
Experimental: Activation of AMPK was associated with the phosphorylation of the α-subunit on Thr-172 of as assessed using phospho-specific antibodies (FIGS. 10A-B). AMPK activation also leads to the increased phosphorylation of the target protein acetyl-CoA carboxylase (ACC) (FIG. 10B).
Cells of each cell lines (Hela, HL-60, and 3T3-L1) were treated for 1 hour with a test compound (COH-SR4, COH-SR9, COH-SR16, or COH-SR18) at a concentration of 1 μM, 3 μM, or 5 μM, or AICAR (5-aminoimidazole-4-carboxamideriboside, an AMPK agonist used as positive control) at a concentration of 500 μM, or none of the above (the untreated cells as negative control). Total cell lysates from the untreated cells and the cells treated with a test compound or AICAR were analyzed by Western blot assay using specific antibodies against phospho-AMPK, phospho-ACC, total AMPK and total ACC.

U251 = test: Glioma ATP viability assay, U251; type: cell-based; conditions: Table 2
Experimental: (§2) Cells of each cell line (U251, U87, PBT-017, PBT018, PBT003 and PBT028) were treated with various concentrations (0˜100 μM) of COH-SR4 for 72 hours. Cell viabilities were determined by ATP viability assays. Data were represented as a ratio to vehicle (DMSO) control, and plotted as mean±SEM (n=12) obtained from 2˜3 experiments (FIG. 34A).
as §2, with “(U87, U251,” for “(U251, U87, PBT-017, PBT018,”, “PVT-017)” for “PBT028)”, “2-3” for “2˜3”, “34B).” for “34A).”
Cells of each cell line were treated with various concentrations (0˜100 μM) of COH-SR4 or various concentrations (0˜1000 μM) of TMZ for 72 hours. Cell viabilities were determined by ATP viability assays. Data were represented as a ratio to untreated cells as control, and plotted as mean±SEM (n=12) obtained from 2˜3 experiments (FIGS. 43A-B).

HL-60 cells [7] = test: HL-60 cell viability, MTT assay; conditions: for cytotoxicity and cell proliferation: 48 hours, 1-15 μM; for IC50: Homo sapiens, HL-60, 48 h
Experimental: Three independent experiments were carried out with 3 duplications each, and data are shown as mean±SE.

[8] = system: HMLE breast cancer cell line; test: HMLE viability, DIMSCAN assay; type: cell-based, human; conditions: 3 days, 2-50 μM
Experimental: The effects of COH-SR compounds on breast cancer cells were investigated. Cells from 4T1 or HMLE breast cancer cell line were seeded in 96-well plates (about 2000 cells/well), allowed to proliferate for one day, treated with a COH-SR compound, doxorubicin, paclitaxel, cisplatin, or nothing (control) at a specific dose (3 wells for each treatment) and assayed for cell viability 3 days after using DIMSCAN assay. COH-SR3, COH-SR4, COH-SR9, doxorubicin, paclitaxel, and cisplatin were used at a dosage of 40 nM, 200 nM, 1 μM, 2 μM, 10 μM, or 50 μM for 4T1 breast cancer cell lines. COH-SR14 was used at a dosage of 40 nM, 200 nM, 1 μM, 2 μM, or 10 μM for 4T1 breast cancer cell lines. COH-SR3, COH-SR4, COH-SR9, doxorubicin, paclitaxel, and cisplatin were used at a dosage of 2 μM, 10 μM, or 50 μM for HMLE breast cancer cell lines. COH-SR14 was used at a dosage of 2 μM, or 10 μM for HMLE breast cancer cell lines.

Compound: CC(C)(Oc1ccc(NC(=O)Nc2cc(Cl)cc(Cl)c2)cc1)C(=O)Nc1ccc(C(=O)O)cc1 [COH-SR7, 4-[(3,5-dichlorophenylureido)phenoxyisobutyril]-4-aminobenzoic acid]
- differentiation and accumulation of lipid droplets (Oil Red O staining) (3T3-L1 cells [1]): dose-dependently inhibited differentiation and accumulation of lipid droplets
- dedifferentiation of fully differentiated adipocytes [2]: induced dedifferentiation of fully differentiated adipocytes
- intracellular triglyceride contents (AdipoRed Assay) (3T3-L1 cells [3]): dose-dependently reduced
- growth of undifferentiated preadipocytes (MTT) [4]: inhibited growth of undifferentiated 3T3-L1 cells
- morphologic changes (Giemsa-Wright stain), myeloid differentiation (HL-60 cells [5]): exhibited cytoplasmic vacuolation, reduced nucleus-to-cytoplasmic ratio, and absence of prominent nucleoli

Compound: COc1cc(/C=C/C(=O)/C=C(O)/C=C/c2ccc(OC(C)=O)c(OC)c2)ccc1O [COH-SR2, (1E,4Z,6E)-7-(4″-acetoxy-3″-methoxyphenyl)-5-hydroxy-1-(4′-hydroxy-3′-methoxyphenyl)hepta-1,4,6-trien-3-one]
- differentiation and accumulation of lipid droplets (Oil Red O staining) (3T3-L1 cells [1]): dose-dependently inhibited differentiation and accumulation of lipid droplets
- activity in NCI-60 screening [6]: active against
- intracellular triglyceride contents (AdipoRed Assay) (3T3-L1 cells [3]): dose-dependently reduced
- growth of undifferentiated preadipocytes (MTT) [4]: inhibited growth of undifferentiated 3T3-L1 cells

Compound: O=C(Nc1cc(Cl)cc(Cl)c1)Nc1cc(Cl)nc(Cl)c1 [COH-SR16, 1-(2,6-dichloropyridin-4-yl)-3-(3,5-dichlorophenyl) urea]
- activity in NCI-60 screening [6]: active against
- AMPK activation (AMPK): Dose-dependent AMPK activation

Compound: CCc1c2c(nc3ccc(OC(=O)N4CCC(N5CCCCC5)CC4)cc13)-c1cc3c(c(=O)n1C2)COC(=O)[C@]3(O)CC [CPT-11, irinotecan]
- IC50 (U251; Homo sapiens, U-251, 72 h): 41.1 µM

Compound: COc1ccc(-c2ccccc2)cc1NC(=O)Nc1cc(Cl)cc(Cl)c1 [COH-SR6, 1-(3,5-dichlorophenyl)-3-(4-methoxy-[1,1′-bisphenyl]-3-yl) urea]
- activity in NCI-60 screening [6]: active against
- morphologic changes (Giemsa-Wright stain), myeloid differentiation (HL-60 cells [5]): exhibited cytoplasmic vacuolation, reduced nucleus-to-cytoplasmic ratio, and absence of prominent nucleoli
- cytotoxicity and cell proliferation (HL-60 cells [7]): exhibited cytotoxicity and prevented cell proliferation of HL-60 leukemia cells

Compound: 1-(4-chlorobenzyl)-3-dichlorophenyeureido)-4-phenoxyisobutyric acid [LR59]
- differentiation and accumulation of lipid droplets (Oil Red O staining) (3T3-L1 cells [1]): dose-dependently inhibited differentiation and accumulation of lipid droplets
- dedifferentiation of fully differentiated adipocytes [2]: induced dedifferentiation of fully differentiated adipocytes
- intracellular triglyceride contents (AdipoRed Assay) (3T3-L1 cells [3]): dose-dependently reduced

Compound: CC(C)(Oc1ccc(NC(=O)Nc2cc(Cl)cc(Cl)c2)cc1)C(=O)NC1(C(=O)O)CCCCC1 [LR23, 4-(3,5-dichlorophenylureido)phenoxyisobutyryl-1-amidocyclohexane-lcarboxylic acid]
- differentiation and accumulation of lipid droplets (Oil Red O staining) (3T3-L1 cells [1]): dose-dependently inhibited differentiation and accumulation of lipid droplets
- intracellular triglyceride contents (AdipoRed Assay) (3T3-L1 cells [3]): dose-dependently reduced

Compound: COc1cc(CCC(=O)CC(=O)CCc2ccc(OC(C)=O)c(OC)c2)ccc1OC(C)=O [COH-SR1, 1,7-bis(4′-acetoxy-3′-methoxyphenyl)-3,5-heptadione]
- differentiation and accumulation of lipid droplets (Oil Red O staining) (3T3-L1 cells [1]): dose-dependently inhibited differentiation and accumulation of lipid droplets
- intracellular triglyceride contents (AdipoRed Assay) (3T3-L1 cells [3]): dose-dependently reduced

Compound: CCc1c2c(nc3ccc(O)cc13)-c1cc3c(c(=O)n1C2)COC(=O)[C@]3(O)CC [SN-38, 7-ethyl-10-hydroxy-camptothecin]
- IC50 (U251; 72 hours): 0.04 µM

Compound: Cc1c(Cl)cc(NC(=O)Nc2cc(Cl)cc(Cl)c2)cc1Cl [COH-SR14, 1-(3,5-dichloro-4-methylphenyl)-3-(3,5-dichlorophenyl) urea]
- activity in NCI-60 screening [6]: active against
- cytotoxic effects compared with doxorubicin, paclitaxel and cisplatin (FIG. 30) [8]: more potent cytotoxic effects
- IC50 (HL-60 cells [7]): < 5 µM

Compound: O=C(Nc1cc(Cl)cc(Cl)c1)Nc1ccnc(Cl)n1 [COH-SR18, 1-(2-chloropyrimidin-4-yl)-3-(3,5-dichlorophenyl) urea]
- AMPK activation (AMPK): Dose-dependent AMPK activation

Compound: O=C(Nc1ccc(Cl)c(Cl)c1)Nc1ccc(Cl)c(Cl)c1 [COH-SR3, 1,3-bis(3,4-dichlorophenyl)urea]
- differentiation and accumulation of lipid droplets (Oil Red O staining) (3T3-L1 cells [1]): dose-dependently inhibited differentiation and accumulation of lipid droplets
- activity in NCI-60 screening [6]: active against
- cytotoxic effects compared with doxorubicin, paclitaxel and cisplatin (FIG. 30) [8]: more potent cytotoxic effects
- dedifferentiation of fully differentiated adipocytes [2]: induced dedifferentiation of fully differentiated adipocytes
- intracellular triglyceride contents (AdipoRed Assay) (3T3-L1 cells [3]): dose-dependently reduced
- growth of undifferentiated preadipocytes (MTT) [4]: inhibited growth of undifferentiated 3T3-L1 cells
- morphologic changes (Giemsa-Wright stain), myeloid differentiation (HL-60 cells [5]): exhibited cytoplasmic vacuolation, reduced nucleus-to-cytoplasmic ratio, and absence of prominent nucleoli
- cytotoxicity and cell proliferation (HL-60 cells [7]): exhibited cytotoxicity and prevented cell proliferation of HL-60 leukemia cells
- IC50 (HL-60 cells [7]): < 5 µM

Compound: O=c1[nH]cc(F)c(=O)[nH]1 [5-FU]
- IC50 (U251; 72 hours): 61 µM
